Assay results reported in the supplement of paper PMC10307832.

Experiments:
Experiment in all cases: relative viability (nuclei count vs DMSO), 5 days (fraction); higher = more cells survive
[1] = compound: C1=CC2=C(C=C(C(=C2N=C1)O)N=NC3=CC4=C(C=C3)C=C(C=C4)S(=O)(=O)O)S(=O)(=O)O + C[C@@H](Oc1cc(-c2cnn(C3CCNCC3)c2)cnc1N)c1c(Cl)ccc(F)c1Cl [Crizotinib] (partner 1 µM)
Summary of the method: (§1)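 Lung cancer cell lines, seeded in 1536-well plates, were treated the following day by pin tool with a single drug or with five library-drug doses (not always all listed) in √10 steps on top of a fixed anchor-drug dose. Cells were fixed and nuclei stained in one step after 5 days, and nuclei were counted. Relative viability is the nuclei count for treated wells divided by that for vehicle wells, reported as medians of duplicate plates.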

AT-7519 + Trametinib = compound: O=C(NC1CCNCC1)c1n[nH]cc1NC(=O)c1c(Cl)cccc1Cl [AT-7519] + CC(=O)Nc1cccc(-n2c(=O)n(C3CC3)c(=O)c3c(Nc4ccc(I)cc4F)n(C)c(=O)c(C)c32)c1 [Trametinib] (partner 0.02 µM)
Summary of the method: as §1

AT-7519 + Palbociclib = compound: O=C(NC1CCNCC1)c1n[nH]cc1NC(=O)c1c(Cl)cccc1Cl [AT-7519] + CC(=O)c1c(C)c2cnc(Nc3ccc(N4CCNCC4)cn3)nc2n(C2CCCC2)c1=O [Palbociclib] (partner 0.5 µM)
Summary of the method: as §1

AT-7519 + Vorinostat = compound: O=C(NC1CCNCC1)c1n[nH]cc1NC(=O)c1c(Cl)cccc1Cl [AT-7519] + O=C(CCCCCCC(=O)Nc1ccccc1)NO [Vorinostat] (partner 1 µM)
Summary of the method: as §1

UMC-11
relative viability ([1]; first compound 0.08 µM): 0.818
relative viability ([1]; first compound 0.253 µM): 0.584
relative viability ([1]; first compound 0.8 µM): 0.491
relative viability ([1]; first compound 2.53 µM): 0.693
relative viability ([1]; first compound 8 µM): 0.717
relative viability (AT-7519 + Trametinib; first compound 0.01 µM): 0.593
relative viability (AT-7519 + Trametinib; first compound 0.03162 µM): 0.647
relative viability (AT-7519 + Trametinib; first compound 0.3162 µM): 0.498
relative viability (AT-7519 + Trametinib; first compound 1 µM): 0.384
relative viability (AT-7519 + Palbociclib; first compound 0.01 µM): 0.319
relative viability (AT-7519 + Palbociclib; first compound 0.03162 µM): 0.328
relative viability (AT-7519 + Palbociclib; first compound 0.3162 µM): 0.283
relative viability (AT-7519 + Palbociclib; first compound 1 µM): 0.25
relative viability (AT-7519 + Vorinostat; first compound 0.01 µM): 0.324
relative viability (AT-7519 + Vorinostat; first compound 0.03162 µM): 0.379
relative viability (AT-7519 + Vorinostat; first compound 0.3162 µM): 0.272
relative viability (AT-7519 + Vorinostat; first compound 1 µM): 0.205
